Source: patent publication US20160251342A1, “ALDEHYDE DERIVATIVE OF SUBSTITUTED OXAZOLIDINONES” (WANBURY LTD., priority 2012, published 2016)

What was measured:
[1] = In vitro stability in rat plasma (LC-MS); type: in vitro ADME
Protocol: (§1) The final concentration of the test compound in the assay is 5 micromolar. […] C. The 100 microlitres of aliquot at time point was removed and diluted with ice cold acetonitrile containing IS (200 µL) to stop the reactions. Samples are centrifuged at 10,000 RPM for 5 minutes to precipitate proteins. Supernatants are transferred to micro centrifuge tubes and stored at −20° C. for analysis of LC/MS/MS. The percent parent remaining of the test substance is calculated as ratio of peak area at each time point to peak area ratio at zero min, multiplied by 100.
(§2) API 4000, ESI Agilent 1100 column: Gemini Nx 100 mm×4.6 mm 5.μ; column temperature: 30° C.; eluent A: 0.1% formic acid in water, eluent B: acetonitrile; gradient: 0-2.5 min 95% A, 5% B; 2.5-2.6 min 5% A, 95% B; 2.6-4.2 min 95% A, 5% B; flow rate: 0.8 ml/min; ESI. Q1:464.098, Q3:144.255

[2] = Intravenous and oral pharmacokinetics in Wistar rats; type: in vivo; settings: after i.v. administration, first measurement point
Protocol: On the day before administration of the substance, a catheter for obtaining blood is implanted in the jugular vein of the experimental animals (male Wistar rats, body weight 200-250 g) under Isofluran® anesthesia.
Blood samples (8-12 time points) are taken through the catheter sequentially over the course of 24 h after administration of the substance. The administration volume is 10 ml/kg for oral and 1 ml/kg for IV in male Wistar rats. Intravenous administration is via a formulation of 2% N—N Dimethyl acetamide/ethanol 10%/PEG400(30%)/water for IV injection (58%) and via Tween80/PEG400/sterile water in the case of oral administration. […]
Plasma is obtained by centrifuging the samples in heparinized tubes. […] After centrifugation, compound formula (B) and, where appropriate, known cleavage products of the compound formula (B) in the supernatant are determined quantitatively using a suitable LC/MS-MS method.
The measured plasma concentrations are used to calculate pharmacokinetic parameters of the test substance and of the active ingredient compound (A) liberated there from, such as AUC, Cmax, T½ (half-life) and CL (clearance). […]
The plasma concentration/time plots determined are used to calculate the pharmacokinetic parameters such as AUC, Cmax, MRT (mean residence time), t½ (half life) and CL (clearance) employing the validated pharmacokinetic calculation programs. […]

[3] = In vitro stability in human plasma (LC-MS); type: in vitro ADME
Protocol: as §1, §2

caco2 system = test: Permeability in caco2 system; type: in vitro ADME; settings: caco2, efflux >2
[4] = Permeability in caco2 system; type: in vitro ADME; settings: human, Caco-2; caco2
CYP isoforms = test: CYP inhibition studies, overall interpretation; type: in vitro ADME, humans; settings: compound formula-B with other drug when administered
Protocol: The ability of substances to inhibit CYP1A2, CYP2C9, CYP2D6, CYP2C19, CYP2J2 and CYP3A4 in humans was investigated with pooled human liver microsomes as enzyme source in the presence of standard substrates (see below) which form CYP-isoform-specific metabolites.
Standard incubation mixtures comprise NADPH and substrates in 100 mM phosphate buffer (pH 7.4) in a total volume of 200 μl. Test compound are dissolved in acetonitrile. Incubated with pooled human liver microsomes at 37° C. for a defined time. The reactions are stopped by adding 100 μl of acetonitrile in which a suitable internal standard is always present. Precipitated proteins are removed by centrifugation, and the supernatants analyzed by LC-MS/MS. The data represents the extrapolated IC50 (μM) concentration derived from 3 μM.
This is an essential parameter to gauge drug-drug interactions.

For `O=CN(C[C@H]1CN(c2ccc(N3CCOCC3=O)cc2)C(=O)O1)C(=O)c1ccc(Cl)s1` [compound formula (B), 5-chloro-N-formyl-N-({(5S)-2-oxo-3-[4-(3-oxomorpholin-4-yl)phenyl]-1,3-oxazolidin-5-yl}methyl)thiophene-2-carboxamide], the “Amount of test product detected (conversion to rivaroxaban from zero min)” value [1] was “min. Neglible”, the “Detectability of unchanged test substance in plasma” value [2] was “no longer detectable” and the “Amount of test product detected (conversion to rivaroxaban from zero min)” value [3] was “Neglible”. For the same molecule, the “Interpretation: Pgp substrate” value (caco2 system) was “observed to be a Pgp substrate”, the Papp A→B [4] was 17.4 ×10⁻⁶ cm/s and the “Interpretation: drug-drug interaction” value (CYP isoforms) was “Low drug-drug interaction”.
